molecular target: USP30 (Homo sapiens (Human), UniProt Q70CQ3); assay: USP30 biochemical FP or FI IC50 assay; settings: read-out: IC50 range
Summary of the method: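 Human USP30 preincubated 30 min at room temperature with compound (8-point series, 100 µM top final) in Tris pH 7.5, Tween 20, BSA, 5 mM β-mercaptoethanol, in duplicate. FP format: 50 nM TAMRA-peptide–isopeptide-ubiquitin substrate, ex 540/em 590. FI format: 100 nM ubiquitin-rhodamine 110, ex 487/em 535. Both read at 0 and after 2 h at room temperature.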

Sequence of USP30 (Q70CQ3 57-517): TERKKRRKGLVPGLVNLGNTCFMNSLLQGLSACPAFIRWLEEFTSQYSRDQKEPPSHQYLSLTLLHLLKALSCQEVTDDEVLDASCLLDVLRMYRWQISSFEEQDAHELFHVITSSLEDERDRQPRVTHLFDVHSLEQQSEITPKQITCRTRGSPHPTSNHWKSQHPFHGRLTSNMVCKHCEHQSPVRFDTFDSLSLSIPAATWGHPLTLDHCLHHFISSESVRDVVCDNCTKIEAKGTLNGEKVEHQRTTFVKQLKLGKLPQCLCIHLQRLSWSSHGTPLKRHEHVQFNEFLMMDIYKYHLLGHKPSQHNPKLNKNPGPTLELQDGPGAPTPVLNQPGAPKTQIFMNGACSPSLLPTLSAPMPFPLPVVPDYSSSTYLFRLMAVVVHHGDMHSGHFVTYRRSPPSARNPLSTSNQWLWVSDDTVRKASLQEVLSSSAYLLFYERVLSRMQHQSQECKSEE

SMILES	IC50
CN(C(=O)c1ccc(-c2cnn(C)c2)c(F)c1)[C@@H]1CCN(C#N)C1 [Example 87, (R)-N-(1-cyanopyrrolidin-3-yl)-3-fluoro-N-methyl-4-(1-methyl-1H-pyrazol-4-yl)benzamide]	0.1 to 1 µM
CN(C(=O)c1nc2ccc(-c3cnn(C)c3)cc2[nH]1)[C@@H]1CCN(C#N)C1 [Example 88, (R)-N-(1-cyanopyrrolidin-3-yl)-N-methyl-6-(1-methyl-1H-pyrazol-4-yl)-1H-benzo[d]imidazole-2-carboxamide]	0.1 to 1 µM
CN(C(=O)N1CC(Oc2ccccc2)C1)[C@@H]1CCN(C#N)C1 [Example 89, (R)—N-(1-cyanopyrrolidin-3-yl)-N-methyl-3-phenoxyazetidine-1-carboxamide]	0.1 to 1 µM
N#CN1C[C@H]2CCN(C(=O)Nc3ccc(C(F)(F)F)cc3F)[C@H]2C1 [Example 90, (3aR,6aR)-5-cyano-N-(2-fluoro-4-(trifluoromethyl)phenyl)hexahydropyrrolo[3,4-b]pyrrole-1(2H)-carboxamide]	< 0.1 µM
N#CN1CC[C@@H](NC(=O)c2ccc(Nc3ncccn3)cc2F)C1 [Example 91, (R)—N-(1-cyanopyrrolidin-3-yl)-2-fluoro-4-(pyrimidin-2-ylamino)benzamide]	< 0.1 µM
Cn1cc(-c2ccc(C(=O)NC3(C)CCN(C#N)C3)c(F)c2)cn1 (centres unmarked) [Example 94, N-(1-cyano-3-methylpyrrolidin-3-yl)-2-fluoro-4-(1-methyl-1H-pyrazol-4-yl)benzamide]	1 to 10 µM
N#CN1CC[C@@H](NC(=O)c2ccc(N3CCOCC3)nc2)C1 [Example 99, (R)-N-(1-cyanopyrrolidin-3-yl)-6-morpholinonicotinamide]	0.1 to 1 µM
N#CN1CC[C@@H](NC(=O)c2cc(-c3ccccc3)[nH]n2)C1 [Example 102, (R)-N-(1-cyanopyrrolidin-3-yl)-phenyl-1H-pyrazole-3-carboxamide]	< 0.1 µM
Cn1cc(-c2cccc(C(=O)N[C@@H]3CCN(C#N)C3)c2F)cn1 [Example 104, (R)-N-(1-cyanopyrrolidin-3-yl)-2-fluoro-3-(1-methyl-1H-pyrazol-4-yl)benzamide]	0.1 to 1 µM
N#CN1CC[C@@H](NC(=O)c2ccc(-c3cnc4nccn4c3)cc2F)C1 [Example 109, (R)-N-(1-cyanopyrrolidin-3-yl)-2-fluoro-4-(imidazo[1,2-a]pyrimidin-6-yl)benzamide]	0.1 to 1 µM
Cn1cc(-c2cc(F)c(C(=O)N[C@@H]3CCN(C#N)C3)c(F)c2)cn1 [Example 113, (R)-N-(1-cyanopyrrolidin-3-yl)-2,6-difluoro-4-(1-methyl-1H-pyrazol-4-yl)benzamide]	0.1 to 1 µM
Cn1cc(-c2ccc3c(C(=O)N[C@@H]4CCN(C#N)C4)cnn3c2)cn1 [Example 114, (R)-N-(1-cyanopyrrolidin-3-yl)-6-(1-methyl-1H-pyrazol-4-yl)pyrazolo[1,5-a]pyridine-3-carboxamide]	0.1 to 1 µM
COc1c(-c2cnn(C)c2)ccc(C(=O)N[C@@H]2CCN(C#N)C2)c1F [Example 115, (R)-N-(1-cyanopyrrolidin-3-yl)-2-fluoro-3-methoxy-4-(1-methyl-1H-pyrazol-4-yl)benzamide]	0.1 to 1 µM
N#Cc1cccc(-c2ccc3nc(C(=O)N[C@@H]4CCN(C#N)C4)cn3c2)c1 [Example 116, (R)-6-(3-cyanophenyl)-N-(1-cyanopyrrolidin-3-yl)imidazo[1,2-a]pyridine-2-carboxamide]	< 0.1 µM
N#Cc1ccc(-c2ccc3nc(C(=O)N[C@@H]4CCN(C#N)C4)cn3c2)cc1 [Example 117, (R)-6-(4-cyanophenyl)-N-(1-cyanopyrrolidin-3-yl)imidazo[1,2-a]pyridine-2-carboxamide]	0.1 to 1 µM
N#CN1CC[C@@H](NC(=O)c2ccc(-c3ccnc(N4CCOCC4)c3)cc2F)C1 [Example 119, (R)-N-(1-cyanopyrrolidin-3-yl)-2-fluoro-4-(2-morpholinopyridin-4-yl)benzamide]	< 0.1 µM
Cn1ncc2cc(-c3cnc(C(=O)N[C@@H]4CCN(C#N)C4)c(F)c3)ccc21 [Example 120, (R)-N-(1-cyanopyrrolidin-3-yl)-3-fluoro-5-(1-methyl-1H-indazol-5-yl)picolinamide]	< 0.1 µM
Cn1ccc2cc(-c3cnc(C(=O)N[C@@H]4CCN(C#N)C4)c(F)c3)cnc21 [Example 121, (R)-N-(1-cyanopyrrolidin-3-yl)-3-fluoro-5-(1-methyl-1H-pyrrolo[2,3-b]pyridin-5-yl)picolinamide]	< 0.1 µM
Cc1nn(C)cc1-c1cnc(C(=O)N[C@@H]2CCN(C#N)C2)c(F)c1 [Example 122, (R)-N-(1-cyanopyrrolidin-3-yl)-5-(1,3-dimethyl-1H-pyrazol-4-yl)-3-fluoropicolinamide]	0.1 to 1 µM
Cn1cc(-c2ccc3nc(C(=O)N[C@@H]4CCN(C#N)C4)cn3c2)cn1 [Example 124, (R)-N-(1-cyanopyrrolidin-3-yl)-6-(1-methyl-1H-pyrazol-4-yl)imidazo[1,2-a]pyridine-2-carboxamide]	0.1 to 1 µM

Continued, values first:

IC50	SMILES
< 0.1 µM	Cn1ncc2cc(-c3ccc(C(=O)N[C@@H]4CCN(C#N)C4)c(F)c3)ccc21 [Example 86, (R)-N-(1-cyanopyrrolidin-3-yl)-2-fluoro-4-(1-methyl-1H-indazol-5-yl)benzamide]
< 0.1 µM	COc1ccc(-c2cc(C(=O)N[C@@H]3CCN(C#N)C3)n[nH]2)cc1 [Example 95, (R)-N-(1-cyanopyrrolidin-3-yl)-5-(4-methoxyphenyl)-1H-pyrazole-3-carboxamide]
0.1 to 1 µM	N#CN1CC[C@@H](NC(=O)c2cc(-c3ccccn3)[nH]n2)C1 [Example 96, (R)-N-(1-cyanopyrrolidin-3-yl)-5-(pyridin-2-yl)-1H-pyrazole-3-carboxamide]
< 0.1 µM	COc1ccccc1-c1cc(C(=O)N[C@@H]2CCN(C#N)C2)n[nH]1 [Example 97, (R)-N-(1-cyanopyrrolidin-3-yl)-5-(2-methoxyphenyl)-1H-pyrazole-3-carboxamide]
< 0.1 µM	N#CN1CC[C@@H](NC(=O)c2cc(-c3ccccc3F)[nH]n2)C1 [Example 98, (R)-N-(1-cyanopyrrolidin-3-yl)-5-(2-fluorophenyl)-1H-pyrazole-3-carboxamide]
< 0.1 µM	COc1ccc(-c2cc(C(=O)N[C@@H]3CCN(C#N)C3)on2)cc1 [Example 100, (R)-N-(1-cyanopyrrolidin-3-yl)-3-(4-methoxyphenyl)isoxazole-5-carboxamide]
0.1 to 1 µM	N#CN1CC[C@@H](NC(=O)c2n[nH]c3ccccc23)C1 [Example 101, (R)-N-(1-cyanopyrrolidin-3-yl)-1H-indazole-3-carboxamide]
0.1 to 1 µM	N#CN1CC[C@@H](NC(=O)c2cc(-c3cccnc3)[nH]n2)C1 [Example 103, (R)-N-(1-cyanopyrrolidin-3-yl)-5-(pyridin-3-yl)-1H-pyrazole-3-carboxamide]
< 0.1 µM	Cc1nccc(-c2ccc(C(=O)N[C@@H]3CCN(C#N)C3)c(F)c2)n1 [Example 105, (R)-N-(1-cyanopyrrolidin-3-yl)-2-fluoro-4-(2-methylpyrimidin-4-yl)benzamide]
0.1 to 1 µM	Cn1cc(-c2ccc(C(=O)N[C@@H]3CCN(C#N)C3)nc2)cn1 [Example 106, (R)-N-(1-cyanopyrrolidin-3-yl)-5-(1-methyl-1H-pyrazol-4-yl)picolinamide]
0.1 to 1 µM	Cn1cc(-c2ccc(F)c(C(=O)N[C@@H]3CCN(C#N)C3)c2)cn1 [Example 107, (R)-N-(1-cyanopyrrolidin-3-yl)-2-fluoro-5-(1-methyl-1H-pyrazol-4-yl)benzamide]
0.1 to 1 µM	N#CN1CC[C@@H](NC(=O)c2ccc(-c3ccncn3)cc2F)C1 [Example 108, (R)-N-(1-cyanopyrrolidin-3-yl)-2-fluoro-4-(pyrimidin-4-yl)benzamide]
0.1 to 1 µM	COc1cc(-c2cnn(C)c2)ccc1C(=O)N[C@@H]1CCN(C#N)C1 [Example 110, (R)-N-(1-cyanopyrrolidin-3-yl)-2-methoxy-4-(1-methyl-1H-pyrazol-4-yl)benzamide]
0.1 to 1 µM	Cn1cc(-c2ccc(C(=O)N[C@@H]3CCN(C#N)C3)cn2)cn1 [Example 111, (R)-N-(1-cyanopyrrolidin-3-yl)-6-(1-methyl-1H-pyrazol-4-yl)nicotinamide]
< 0.1 µM	N#CN1CC[C@@H](NC(=O)c2ccc(-c3ccc4nccn4c3)cc2F)C1 [Example 118, (R)-N-(1-cyanopyrrolidin-3-yl)-2-fluoro-4-(imidazo[1,2-a]pyridin-6-yl)benzamide]
< 0.1 µM	N#CN1CC[C@@H](NC(=O)c2ncc(-c3ccc(F)cc3)cc2Cl)C1 [Example 123, (R)-3-chloro-N-(1-cyanopyrrolidin-3-yl)-5-(4-fluorophenyl)picolinamide]
0.1 to 1 µM	Cc1nn(C)cc1-c1ccc2nc(C(=O)N[C@@H]3CCN(C#N)C3)cn2c1 [Example 125, (R)-N-(1-cyanopyrrolidin-3-yl)-6-(1,3-dimethyl-1H-pyrazol-4-yl)imidazo[1,2-a]pyridine-2-carboxamide]
< 0.1 µM	Cn1cc(-c2ccc3[nH]nc(C(=O)N[C@@H]4CCN(C#N)C4)c3c2)cn1 [Example 126, (R)-N-(1-cyanopyrrolidin-3-yl)-5-(1-methyl-1H-pyrazol-4-yl)-1H-indazole-3-carboxamide]
0.1 to 1 µM	Cn1cc(-c2ccc3c(C(=O)N[C@@H]4CCN(C#N)C4)n[nH]c3c2)cn1 [Example 127, (R)-N-(1-cyanopyrrolidin-3-yl)-6-(1-methyl-1H-pyrazol-4-yl)-1H-indazole-3-carboxamide]
< 0.1 µM	Cc1noc(C)c1-c1ccc2cc(C(=O)N[C@@H]3CCN(C#N)C3)[nH]c2c1 [Example 128, (R)-N-(1-cyanopyrrolidin-3-yl)-6-(3,5-dimethylisoxazol-4-yl)-1H-indole-2-carboxamide]
< 0.1 µM	Cc1nn(C)cc1-c1ccc2cc(C(=O)N[C@@H]3CCN(C#N)C3)[nH]c2c1 [Example 129, (R)-N-(1-cyanopyrrolidin-3-yl)-6-(1,3-dimethyl-1H-pyrazol-4-yl)-1H-indole-2-carboxamide]
